Measured values published in patent publication US10548897B2, “KSR antagonists” (Icahn School of Medicine at Mount Sinai, priority 2015, dated 2020).

Assays:
[1] = system: ERK phosphorylation in SK-MEL-239 cell line; test: ERK phosphorylation dose response to trametinib, SK-MEL-239; type: cell-based; settings: SK-MEL-239 (RAF-mutant)
[2] = system: MAPK pathway readouts (pERK, pMEK, pRSK) in A375 and HCT-116; test: Western blot of MAPK pathway readouts, treatment with trametinib combinations; type: cell-based
[3] = system: KSR-stimulated MEK and ERK phosphorylation; test: Cell-based reconstitution system monitoring KSR-driven MAPK signaling
Source text: To assess the biological function of lead compounds as Ras-MAPK pathway antagonists, a simplified cell-based reconstitution system was developed to directly monitor KSR-driven MAPK signaling. […] Based on similarity in phenotype and direct-binding activity, Compound 21 was identified as a small molecule mimic of KSR alleles that suppress oncogenic Ras mutations.

[4] = system: RAF; test: Inhibitory activity against purified RAF; type: biochemical
[5] = molecular target: KSR2 (purified hKSR2-rMEK1 complex) (Homo sapiens (Human), UniProt Q6VAB6); test: ATP-biotin probe labeling and inhibitor competition (KSR2 band); type: binding; settings: ATPbiotin probe labeling competition; 0.1 μM KSR2:MEK1; 27 nM to 20 μM compound; triplicate; read-out: KSR2 IC50
Source text: Human KSR2 (residues 634-950) and rabbit MEK1 (residues 1 to 393) were codon optimized for insect cell expression by DNA 2.0. Inserts were expressed with TEV cleavable 6×-His tags from the pFastBac Dual expression vector. Bacmids were used to transfect adherent SF21 cells and viruses were subsequently titred to high levels through serial infections of SF21 cells. […] Briefly, following infections, cells were harvested, lysed, and affinity purified using Co2+ sepharose resin (GoldBio). […] Dialysis retentate was diluted 3 fold and then applied to a Resourse S ion exchange column. […] One-to-one hKSR2-MEK1 complexes were captured in late fractions from an increasing salt gradient. Complexes were later applied to a 120 mL Superdex 200 gel filtration column and finally concentrated to approximately 10 mg/mL before flash freezing for biochemical assays.
The ATP-biotin assay was performed in buffer containing 25 mM Tris pH 7.5, 150 mM NaCl, 10 mM MgCl2, and 2% DMSO. […] In particular, hKSR2-rMEK1 was pre-incubated with 20 μM of the indicated compounds for 15 minutes. Then, ATP-biotin (Pierce Cat. #88310) was added to a final concentration of 2 μM. Reactions were incubated at room temperature for 5 minutes before being stopped by the addition of 6×SDS loading dye. […] Enhanced chemiluminescence signals corresponding to labeling on KSR2 and MEK1 were visualized and quantified using the Biodoc system (Biorad). Relative signals of Streptavidin HRP on bands corresponding to KSR2 and MEK1 in the presence of compounds relative to DMSO controls were used to determine ‘Percent Inhibition of ATP Probe Labeling’.
For the ATP^biotin labeling competition screen, samples were applied to a 4-20% Tris-HCl gel, separated, and then transferred to a nitrocellulose membrane. The membrane was blocked with 5% bovine serum albumin diluted in TBS-T for 30 minutes and subsequently probed with the Pierce™ High Sensitivity Streptavidin-HRP. After several washes, the membranes were visualized using enhanced chemiluminescence on a Biodoc (Biorad).

[6] = molecular target: KSR2^A690F:MEK1 phosphorylation by B-RAF (Homo sapiens (Human), UniProt Q6VAB6, A690F); test: RAF phosphorylation assay, KSR2^A690F:MEK1 substrate; type: biochemical; settings: 10 μM compound
Procedure: FIGS. 9A-9C show phosphorylation of MEK1, KSR2:MEK1, and KSR2^A690F:MEK1 by B-RAF over time in the presence of Compound 21. Relative pMEK was determined by quantification of band intensities from western blots using Image Lab Software 4.1.
In particular, a variant of B-RAF was identified that could be expressed in high yield from E. Coli and which also retained near wild-type levels of kinase activity towards MEK1. For in vitro kinase assays, indicated concentrations of B-RAF and 1 μM KSR2-MEK1 or 1 μM MEK1 proteins were pre-incubated with 10 μM of indicated compounds for 15 minutes in buffer containing 25 mM Tris pH 7.5, 150 mM NaCl, 10 mM MgCl2, and 2% DMSO. Kinase reactions were initiated by the addition of 100 μM ATP and halted at the indicated times by the addition of 6×SDS loading dye. Samples were examined by western blotting as described for the ATP-biotin experiments and by probing overnight with a MEK1/2 Ser218-Ser222 phospho-specific antibody (Cell signaling). Membranes were visualized using enhanced chemiluminescence on a Biodoc (Biorad) for quantification purposes.

COc1cc2ncnc(Nc3ccc(Oc4ccccc4)cc3C)c2cc1OC [Compound 21, 6,7-Dimethoxy-N-(2-methyl-4-phenoxyphenyl)quinazolin-4-amine 2,2,2-trifluoroacetate]
enhancement in the IC90 of trametinib on ERK phosphorylation [1]: not
MAPK pathway inhibition (pERK, pMEK, pRSK), single agent ([2]; alone, compared with Compound 21 + trametinib co-treatment): did not display the same pathway inhibition
MAPK pathway inhibition (pERK, pMEK, pRSK) in combination with trametinib ([2]; combined with trametinib, A375 and HCT-116): reduction in MAPK pathway readouts
suppression of KSR-stimulated MEK and ERK phosphorylation ([3]; KSR expression-dependent MAPK signaling): suppressed
suppression of KSR-stimulated MAPK signaling with active site mutant KSR^A690F ([3]; KSR^A690F mutant): greatly diminished the activity
inhibitory activity against purified RAF [4]: lacked detectable inhibitory activity
IC50 [5]: 120 ± 23 nM
MEK phosphorylation by RAF, KSR2^A690F mutant [6]: essentially inactive
